The text below walks through data of ChEMBL document CHEMBL1782053, “Differences in CYP3A4 catalyzed bioactivation of 5-aminooxindole and 5-aminobenzsultam scaffolds in proline-rich tyrosine kinase 2 (PYK2) inhibitors: retrospective analysis by CYP3A4 molecular docking, quantum chemical calculations and glutathione adduct detection using linear ion trap/orbitrap …” (Bioorg Med Chem Lett, 2009).

Data set [1] is described as follows: Dissociation constant, pKa of the compound. Format: physicochemical.
Data set [2] has as its system Liver microsomes. Nature of the data set: Metabolic stability in human liver microsome assessed as level of GSH adduct at 20 uM by ion trap/orbitrap MS analysis. Format: ADME. For orientation: Liver microsomes are a subcellular fraction often used to study metabolism.
Data set [3] concerns Liver microsomes. The data set is described as follows: Metabolic stability in human liver microsome assessed as level of GSH adduct at 1 to 10 uM by ion trap/orbitrap MS analysis. Format: ADME.

Take `CN(C)[C@@H]1CCC[C@H]1Nc1nc(Nc2ccc3c(c2)CS(=O)(=O)N3)ncc1C(F)(F)F`: the pKa (in general, the negative logarithm of the acid dissociation constant) in data set [1] amounted to 9.26. Also, the Stability result in data set [2] is “Unstable”; in data set [3] it was “Stable”.

As to `CN(C)[C@@H]1CCC[C@H]1Nc1nc(Nc2ccc3c(c2)CC(=O)N3)ncc1C(F)(F)F`, the pKa in data set [1] came out at 13.7.
